This passage reports EC50 results from patent US20250135006A1, “AMPHIPHILIC TLR7/8 ADJUVANTS AND USES THEREOF” (Pfizer Inc., priority 2023, published 2025).

The target in assay [1] is T1, human toll like receptor 7 (hTLR7) (Homo sapiens, UniProt Q9NYK1).
T1 construct: host or cells: HEK293 (HEK-Blue hTLR7)
T1 sequence (Q9NYK1 27-1049): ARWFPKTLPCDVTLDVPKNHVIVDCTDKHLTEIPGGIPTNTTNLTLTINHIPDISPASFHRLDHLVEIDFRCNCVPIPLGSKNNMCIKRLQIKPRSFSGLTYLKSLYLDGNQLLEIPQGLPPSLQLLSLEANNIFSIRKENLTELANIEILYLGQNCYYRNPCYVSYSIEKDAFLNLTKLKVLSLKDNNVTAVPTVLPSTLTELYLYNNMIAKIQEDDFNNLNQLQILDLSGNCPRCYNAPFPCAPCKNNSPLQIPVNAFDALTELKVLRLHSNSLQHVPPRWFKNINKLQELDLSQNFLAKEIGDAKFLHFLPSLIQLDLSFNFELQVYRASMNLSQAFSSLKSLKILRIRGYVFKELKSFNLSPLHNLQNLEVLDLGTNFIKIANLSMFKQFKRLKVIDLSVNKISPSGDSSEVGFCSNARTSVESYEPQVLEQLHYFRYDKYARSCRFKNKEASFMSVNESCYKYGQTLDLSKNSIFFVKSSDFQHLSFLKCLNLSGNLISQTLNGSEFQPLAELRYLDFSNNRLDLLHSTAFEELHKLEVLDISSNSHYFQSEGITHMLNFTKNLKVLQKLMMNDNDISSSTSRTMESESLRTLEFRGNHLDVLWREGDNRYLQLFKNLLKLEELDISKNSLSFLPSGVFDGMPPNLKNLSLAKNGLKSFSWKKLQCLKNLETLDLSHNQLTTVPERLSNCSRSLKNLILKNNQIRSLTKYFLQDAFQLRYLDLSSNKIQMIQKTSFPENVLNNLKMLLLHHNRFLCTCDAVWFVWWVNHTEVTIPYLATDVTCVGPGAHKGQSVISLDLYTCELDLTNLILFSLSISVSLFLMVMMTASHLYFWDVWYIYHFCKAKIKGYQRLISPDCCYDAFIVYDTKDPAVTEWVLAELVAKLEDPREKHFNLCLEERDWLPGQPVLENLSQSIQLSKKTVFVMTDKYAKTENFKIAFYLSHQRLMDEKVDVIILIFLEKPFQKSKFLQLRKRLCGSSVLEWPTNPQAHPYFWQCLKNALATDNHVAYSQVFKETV
Nature of the assay: hTLR7 in-vitro functional assay (HEK-Blue hTLR7 SEAP reporter). The format is cell-based. Conditions: HEK-Blue hTLR7 cells, overnight incubation. The source says: (§1) To determine the ability of test compounds to activate the human toll like receptor 7 (hTLR7) or human toll like receptor 8 (hTLR8), cell-based reporter systems were utilized. HEK293 cells stably overexpressing either hTLR7 or hTLR8 along with a reporter gene containing an optimized secreted embryonic alkaline phosphatase gene (SEAP), under the control of the IFN-b minimal promoter fused to five NF-kB and AP-1-binding sites, were obtained from Invivogen (HEK-Blue™ hTLR7, cat #Hkb-htlr7; HEK-Blue™ hTLR8, cat #Hkb-htlr8). Stimulation of hTLR7 or hTLR8 in these cells activates NF-kB and AP-1 and induces the production of SEAP which can be quantified using an alkaline phosphatase detection reagent.
(§2) On day one of the assay, compounds were prepared using 11-point half-log serial dilutions from a 10 mM DMSO stock solution and 50 nL was spotted into 384-well plates (PerkinElmer, cat #6007480). Positive and negative controls were also spotted within the assay plate and were used to determine percent effect during the analysis process. After resuspension in DMEM assay media containing FBS heat inactivated (10%), Glutamax (2 mM) and Penicillin/Streptomycin, 10,000 cells/20 ul/well were added to previously prepared compound plates. Plates were incubated overnight (16-20 hrs) at 37° C. in a 5% CO2 environment. Prewetted Microclime lids (Labcyte, LLS-0310) were used to prevent evaporation. On day two of the assay, QUANTI-Blue™ detection reagent was prepared by reconstituting QUANTI-Blue™ powder (InvivoGen, Rep-qb1) with 100 ml of sterile water and allowed to equilibrate to 37° C. for 15 minutes. 20 ul of QUANTI-Blue™ detection reagent was added to each well and plates were incubated at room temperature for 180 min. At the end of the incubation, plates were read on an Envision (Perkin Elmer) plate reader capturing absorbance at 650 nm.
(§3) Using Positive (tool compound) and Negative (DMSO) controls, the percent (%) effect was calculated for each sample using the following equation: […]
(§4) The % effect at each concentration of compound was calculated utilizing the ABase software suite (IBDS) and was relative to the amount of SEAP produced in the positive and negative control wells contained within each assay plate. The concentrations and % effect values for test compounds were fit using a 4-parameter logistic model in ABase and the concentration of compound that produced 50% response (EC50) was calculated.

The target in assay [2] is T2, human toll like receptor 8 (hTLR8) (Homo sapiens, UniProt Q9NR97).
T2 construct: host or cells: HEK293 (HEK-Blue hTLR8)
T2 sequence (Q9NR97 27-1041): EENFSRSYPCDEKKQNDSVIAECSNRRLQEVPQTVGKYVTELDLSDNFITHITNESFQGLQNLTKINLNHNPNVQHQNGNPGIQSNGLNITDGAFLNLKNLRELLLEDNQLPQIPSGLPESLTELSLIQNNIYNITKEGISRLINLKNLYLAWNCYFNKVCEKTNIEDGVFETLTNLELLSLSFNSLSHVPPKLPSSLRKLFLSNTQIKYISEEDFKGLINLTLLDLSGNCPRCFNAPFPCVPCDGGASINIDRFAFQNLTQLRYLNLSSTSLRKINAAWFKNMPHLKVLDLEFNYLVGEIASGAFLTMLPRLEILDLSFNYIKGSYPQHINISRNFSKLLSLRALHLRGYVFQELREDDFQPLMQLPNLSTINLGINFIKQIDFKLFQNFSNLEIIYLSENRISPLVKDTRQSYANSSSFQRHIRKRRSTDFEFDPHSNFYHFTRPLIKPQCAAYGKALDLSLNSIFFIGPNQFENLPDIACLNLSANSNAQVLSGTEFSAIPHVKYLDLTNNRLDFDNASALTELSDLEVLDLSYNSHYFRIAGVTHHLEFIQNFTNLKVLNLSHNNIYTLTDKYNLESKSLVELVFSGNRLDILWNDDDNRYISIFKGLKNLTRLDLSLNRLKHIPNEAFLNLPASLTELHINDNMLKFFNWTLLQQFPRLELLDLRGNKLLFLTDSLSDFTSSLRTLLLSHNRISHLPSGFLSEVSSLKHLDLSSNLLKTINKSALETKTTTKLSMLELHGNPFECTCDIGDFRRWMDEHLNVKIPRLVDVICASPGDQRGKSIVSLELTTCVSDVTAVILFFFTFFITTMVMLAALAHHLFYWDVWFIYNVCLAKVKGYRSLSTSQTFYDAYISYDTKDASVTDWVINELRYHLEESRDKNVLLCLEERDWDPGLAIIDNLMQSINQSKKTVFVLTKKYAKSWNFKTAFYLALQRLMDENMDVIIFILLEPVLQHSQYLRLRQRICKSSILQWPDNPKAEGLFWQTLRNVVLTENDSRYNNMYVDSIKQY
The experiment in a line: hTLR8 in-vitro functional assay (HEK-Blue hTLR8 SEAP reporter). It counts as cell-based. Conditions: HEK-Blue hTLR8 cells, overnight incubation.
Excerpt: as §1, §2, §3, §4

As a reminder, the EC50 is the concentration giving half of the maximal effect. Turning to `CCCCc1nc2c(N)nc3cc(CCCN4CCN(C(=O)CCOCCOCCOCCOCCOCCOCCOCCOCCOCCOCCOCCOCCNC(=O)O[C@H]5CC[C@@]6(C)C(=CC[C@H]7[C@@H]8CC[C@H]([C@H](C)CCCC(C)C)[C@@]8(C)CC[C@@H]76)C5)CC4)ccc3c2n1CC(C)(CO)CO` [Compound 20, (20R)-cholest-5-en-3beta-yl {39-[4-(3-{4-amino-2-butyl-1-[3-hydroxy-2-(hydroxymethyl)-2-methylpropyl]-1H-imidazo[4,5-c]quinolin-7-yl}propyl)piperazin-1-yl]-39-oxo-3,6,9,12,15,18,21,24,27,30,33,36-dodecaoxanonatriacontan-1-yl}carbamate], the figures for the EC50 in assay [1] and in assay [2] were 443 nM and 21.8 µM, respectively.
On to `CCCCc1nc2c(N)nc3cc(CCCN4CCN(Cc5ccc(NC(=O)[C@H](C)NC(=O)[C@@H](NC(=O)COCCOCCNC(=O)O[C@H]6CC[C@@]7(C)C(=CC[C@H]8[C@@H]9CC[C@H]([C@H](C)CCCC(C)C)[C@@]9(C)CC[C@@H]87)C6)C(C)C)cc5)CC4)ccc3c2n1CC(C)(CO)CO` [Compound 27, (3beta)-cholest-5-en-3-yl {(2S,5S)-1-((4-((4-(3-(4-amino-2-butyl-1-(3-hydroxy-2-(hydroxymethyl)-2-methylpropyl)-1H-imidazo[4,5-c]quinolin-7-yl)propyl)piperazin-1-yl)methyl)phenyl)amino)-5-isopropyl-2-methyl-1,4,7-trioxo-9,12-dioxa-3,6-diazatetradecan-14-yl}carbamate], for which the EC50 in assay [1] stood at 3100 nM; in assay [2], 2.97 µM.
For `CCCCc1nc2c(N)nc3cc(CCCN4CCN(CCCOCCOCCOCCOCCNC(=O)CCOCCOCCOCCOCCNC(=O)O[C@H]5CC[C@@]6(C)C(=CC[C@H]7[C@@H]8CC[C@H]([C@H](C)CCCC(C)C)[C@@]8(C)CC[C@@H]76)C5)CC4)ccc3c2n1CC(C)(CO)CO` [Compound 15, (20R)-cholest-5-en-3beta-yl {31-[4-(3-{4-amino-2-butyl-1-[3-hydroxy-2-(hydroxymethyl)-2-methylpropyl]-1H-imidazo[4,5-c]quinolin-7-yl}propyl)piperazin-1-yl]-15-oxo-3,6,9,12,19,22,25,28-octaoxa-16-azahentriacontan-1-yl}carbamate], in that order: 276 nM and 17.6 µM.
Take `CCCCc1nc2c(N)nc3cc(CCCN4CCN(CCCOCCOCCOCCOCCOCCOCCOCCOCCOCCOCCOCCOCCOCCOCCOCCOCCNC(=O)O[C@H]5CC[C@@]6(C)C(=CC[C@H]7[C@@H]8CC[C@H]([C@H](C)CCCC(C)C)[C@@]8(C)CC[C@@H]76)C5)CC4)ccc3c2n1CC(C)(CO)CO` [Compound 14, (3beta,20R)-cholest-5-en-3-yl {51-[4-(3-{4-amino-2-butyl-1-[3-hydroxy-2-(hydroxymethyl)-2-methylpropyl]-1H-imidazo[4,5-c]quinolin-7-yl}propyl)piperazin-1-yl]-3,6,9,12,15,18,21,24,27,30,33,36,39,42,45,48-hexadecaoxahenpentacont-1-yl}carbamate]: the results for the EC50 in assay [1] and in assay [2] were 236 nM and 22.6 µM, respectively.
In the same order, the values of `CCCCc1nc2c(N)nc3cc(CCCN4CCN(CCCOCCOCCOCCOCCOCCOCCOCCOCCOCCOCCOCCOCCOCCOCCOCCOCCOCCOCCOCCOCCOCCOCCOCCOCCNC(=O)CCOCCOCCOCCOCCNC(=O)O[C@H]5CC[C@@]6(C)C(=CC[C@H]7[C@@H]8CC[C@H]([C@H](C)CCCC(C)C)[C@@]8(C)CC[C@@H]76)C5)CC4)ccc3c2n1CC(C)(CO)CO` [Compound 17, (3beta)-cholest-5-en-3-yl {91-[4-(3-{4-amino-2-butyl-1-[3-hydroxy-2-(hydroxymethyl)-2-methylpropyl]-1H-imidazo[4,5-c]quinolin-7-yl}propyl)piperazin-1-yl]-15-oxo-3,6,9,12,19,22,25,28,31,34,37,40,43,46,49,52,55,58,61,64,67,70,73,76,79,82,85,88-octacosaoxa-16-azahennonacont-1-yl}carbamate] are 282 nM and 2.61 µM.
